Reference: patent publication US10335374B2, “Tablet composition for anti-tuberculosis antibiotics” (priority 2014, dated 2019)
pIC50: −log10 of the molar value. Values after ≈ are worked out from the molar mass of the structure shown. Where two headings read alike, the source gives them in different places.

How the values were obtained:
[1] = system: Mycobacterium Tuberculosis Infected Macrophages; details: intracellular, published study; cited from earlier work
[2] = system: M. tuberculosis H37Rv; test: MIC, IC50 and IC90 under aerobic conditions (growth after five days); type: cell-based, Mycobacterium tuberculosis
[3] = system: M. tuberculosis H37Rv; test: Minimum bactericidal concentration (kill kinetics, 21 days); type: cell-based; details: for MBC: Mycobacterium tuberculosis, H37RV
[4] = system: Vero African green monkey kidney cell line; test: Cytotoxicity towards eukaryotic cells; type: cell-based; details: Chlorocebus sabaeus, 48 h, two days
[5] = system: Murine J774 macrophages infected with a luminescent strain of H37Rv; type: cell-based, M. tuberculosis; details: intracellular
[6] = system: M. tuberculosis; test: IC50, IC90 and MIC of amikacin one and two component complexes; type: cell-based; details: Mycobacterium tuberculosis
[7] = system: H37Rv strain; test: MIC of amikacin complexes, H37Rv strain; type: cell-based, M. tuberculosis; details: Mycobacterium tuberculosis, second set
[8] = clinical trials, compared to placebo groups; cited from earlier work
[9] = system: active TB; test: MIC of capreomycin one and two component systems against active TB; type: cell-based, Mycobacterium tuberculosis
Experimental: The first antibiotic complex investigated with one and two component systems consisted of the second-line TB drug capreomycin which was bound to the copper(II) cation and the aggregate forming water soluble unbranched polymer PEG-3350. […] MIC values are defined as the lowest concentration of an antimicrobial (i.e. antifungal, antibiotic or bacteriostatic) drug that will inhibit the visible growth of a microorganism after incubation and is a common unit used to describe the level of efficacy of an antibiotic against a bacterium.

[10] = rats (oral); cited from earlier work
[11] = in vivo; cited from earlier work
[12] = Mycobacterium tuberculosis, H37RV, aerobic conditions, glucose series
[13] = Mycobacterium tuberculosis, H37RV, aerobic conditions, isoniazid-sucrose series, equal molar ratios
[14] = Mycobacterium tuberculosis, H37RV, aerobic conditions, rifampicin complexes, second set

COc1c(N2CC[C@@H](C(C)(C)N)C2)c(F)cc2c(=O)c3c(=O)[nH]sc3n(C3CC3)c12 [ACH-702]
drop of activity, log(kill) units [1]: ~1.3 log(kill) units

NNC(=O)c1ccncc1 [Isoniazid (INH), isoniazid]
pIC50 [2, 12]: 6.33 | IC90 [2, 12]: 620 nM | MIC ([2]; Mycobacterium tuberculosis, H37RV, aerobic conditions, glucose series, read-out: MIC): 0.64 µM (≈ 0.0878 µg/mL) | pIC50 [2, 13]: 6.20 | IC90 [2, 13]: 1000 nM | MIC ([2]; Mycobacterium tuberculosis, H37RV, aerobic conditions, isoniazid-sucrose series, equal molar ratios, read-out: MIC): 0.97 µM | MBC ([3]; isoniazid-sucrose series): 0.3 µM (≈ 0.0411 µg/mL) | pIC50 [4]: < 4.00 | average log(kill) value ([5]; average of table eight): 2.5 | Log Kill ([5]; concentration 1.2 μM): 2.5 | Log Kill ([5]; concentration 12 μM): 2.5

Cn1nnc(-c2ccc(-c3ccc(N4C[C@H](CO)OC4=O)cc3F)cn2)n1 [Tedizolid]
drop of activity, log(kill) units [1]: approximately 1.4 log(kill) units

NCC[C@H](O)C(=O)N[C@@H]1C[C@H](N)[C@@H](O[C@H]2O[C@H](CN)[C@@H](O)[C@H](O)[C@H]2O)[C@H](O)[C@H]1O[C@H]1O[C@H](CO)[C@@H](O)[C@H](N)[C@H]1O [amikacin]
pIC50 [6]: 6.67 | IC90 [6]: 328 nM | MIC [6]: 0.39 µM | MIC [7]: 0.256 µM

COc1nc2ccc(Br)cc2cc1[C@@H](c1ccccc1)[C@@](O)(CCN(C)C)c1cccc2ccccc12 [bedaquiline, Bedaquiline]
deaths in recipient groups [8]: 11.4%

[Cl][Cu][Cl] [copper(II) chloride]
MIC [9]: 0.39 µM | LD50 [10]: 140 mg/kg

CCO [ethyl alcohol]
LD50 [11]: 14,000 mg/kg

CO[C@H]1/C=C/O[C@@]2(C)Oc3c(C)c(O)c4c(O)c(c(/C=N/N5CCN(C)CC5)c(O)c4c3C2=O)NC(=O)/C(C)=C\C=C\[C@H](C)[C@H](O)[C@@H](C)[C@@H](O)[C@@H](C)[C@H](OC(C)=O)[C@@H]1C [rifampicin]
MIC ([2]; Mycobacterium tuberculosis, H37RV, H37Rv strain, rifampicin complexes, first set, read-out: MIC): 0.006 µM (≈ 0.00494 µg/mL) | pIC50 [2, 14]: 8.52 | IC90 [2, 14]: 3 nM | MIC ([2]; Mycobacterium tuberculosis, H37RV, aerobic conditions, rifampicin complexes, second set, read-out: MIC): 0.004 µM (≈ 0.00329 µg/mL) | MBC ([3]; rifampicin complexes): 0.06 µM (≈ 0.0494 µg/mL) | MBC/MIC ([3]; rifampicin complexes): 15

[Cl-].[Na+] [sodium chloride]
LD50 [11]: 3,000 mg/kg

COc1cc(C=O)ccc1O [vanillin]
LD50 [11]: 1,580 mg/kg

capreomycin
MIC [9]: 3.13 µM

copper (II) chloride dihydrate
MIC ([2]; H37Rv strain, rifampicin complexes, first set): 105.7 µM

copper gluconate
LD50 [10]: 1710 mg/kg

vitamin A
LD50 [11]: 2,000 mg/kg
